Assay results: PubChem BioAssay (NCI)
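Five compound concentrations were applied to cells in 96-well plates for 48 hours; endpoints were derived by simple linear interpolation of the resulting dose-response curve. GI50: concentration for 50% inhibition of growth. TGI: total growth inhibition.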

Assays:
Assay in all cases: NCI-60 cell line screen, 48 h
[1] = system: MCF7 breast
[2] = system: SK-OV-3 ovarian
[3] = system: HCT-116 colon
[4] = system: PC-3 prostate
[5] = system: SF-295 CNS
[6] = system: CAKI-1 renal
[7] = system: OVCAR-5 ovarian
[8] = system: A549 NSCLC
[9] = system: MALME-3M melanoma
[10] = system: TK-10 renal
[11] = system: NCI-H522 lung
[12] = system: IGROV1 ovarian
[13] = system: SNB-19 CNS
[14] = system: M14 melanoma
[15] = system: HOP-92 NSCLC
[16] = system: SK-MEL-5 melanoma
[17] = system: OVCAR-4 ovarian
[18] = system: KM12 colon
[19] = system: MDA-MB-231 breast
[20] = system: RPMI-8226 leukemia
[21] = system: NCI/ADR-RES ovarian
[22] = system: UACC-62 melanoma
[23] = system: MDA-MB-435
[24] = system: DU-145 prostate
[25] = system: SN12C renal
[26] = system: HS 578T breast
[27] = system: SK-MEL-2 melanoma
[28] = system: UACC-257 melanoma
[29] = system: NCI-H460 lung
[30] = system: 786-0 renal
[31] = system: CCRF-CEM leukemia
[32] = system: RXF 393 renal
[33] = system: SW-620 colon
[34] = system: NCI-H226 lung
[35] = system: HT29 colon
[36] = system: HCC-2998 colon
[37] = system: T-47D breast
[38] = system: SF-268 CNS
[39] = system: LOX IMVI melanoma
[40] = system: K-562 leukemia
[41] = system: SR leukemia
[42] = system: EKVX NSCLC
[43] = system: SNB-75 CNS
[44] = system: OVCAR-3 ovarian
[45] = system: SF-539 CNS
[46] = system: NCI-H23 lung
[47] = system: OVCAR-8 ovarian
[48] = system: ACHN renal
[49] = system: HCT-15 colon
[50] = system: UO-31 renal
[51] = system: U251 CNS
[52] = system: HL-60(TB) leukemia
[53] = system: HOP-62 NSCLC
[54] = system: COLO 205 colon
[55] = system: MOLT-4 leukemia
[56] = system: SK-MEL-28 melanoma

Oc1ccc(-c2nnc3sc(-c4ccc(F)c(Oc5ccccc5)c4)nn23)cc1
GI50 [1]: 14.6 µM | TGI [1]: > 100 µM | GI50 [2]: 44.6 µM | TGI [2]: > 100 µM | GI50 [3]: 23.5 µM | TGI [3]: > 100 µM | GI50 [4]: 36.8 µM | TGI [4]: > 100 µM | GI50 [5]: 23.2 µM | TGI [5]: 59.9 µM | GI50 [6]: 20.8 µM | TGI [6]: 80.6 µM | GI50 [7]: > 100 µM | TGI [7]: > 100 µM | GI50 [8]: 30.9 µM | TGI [8]: > 100 µM | GI50 [9]: 44.4 µM | TGI [9]: 98.7 µM | GI50 [10]: 29.6 µM | TGI [10]: 77 µM | GI50 [11]: 72.5 µM | TGI [11]: > 100 µM | GI50 [12]: 47.4 µM | TGI [12]: > 100 µM | GI50 [13]: 34.6 µM | TGI [13]: > 100 µM | GI50 [14]: 43.6 µM | TGI [14]: > 100 µM | GI50 [15]: 26.1 µM | TGI [15]: > 100 µM | GI50 [16]: 18.6 µM | TGI [16]: > 100 µM | GI50 [17]: > 100 µM | TGI [17]: > 100 µM | GI50 [18]: 45.7 µM | TGI [18]: > 100 µM | GI50 [19]: 16.4 µM | TGI [19]: 47.4 µM | GI50 [20]: 28.4 µM | TGI [20]: > 100 µM | GI50 [21]: 66.5 µM | TGI [21]: > 100 µM | GI50 [22]: 19.8 µM | TGI [22]: 66.8 µM | GI50 [23]: 68.6 µM | TGI [23]: > 100 µM | GI50 [24]: 35 µM | TGI [24]: > 100 µM | GI50 [25]: 37.6 µM | TGI [25]: > 100 µM | GI50 [26]: 19.8 µM | TGI [26]: 51.4 µM | GI50 [27]: > 100 µM | TGI [27]: > 100 µM | GI50 [28]: > 100 µM | TGI [28]: > 100 µM | GI50 [29]: 38.5 µM | TGI [29]: > 100 µM | GI50 [30]: 21.8 µM | TGI [30]: 50.3 µM | GI50 [31]: > 100 µM | TGI [31]: > 100 µM | GI50 [32]: 7.47 µM | TGI [32]: 25.3 µM | GI50 [33]: 83 µM | TGI [33]: > 100 µM | GI50 [34]: 24.6 µM | TGI [34]: 98.4 µM | GI50 [35]: 27.4 µM | TGI [35]: > 100 µM | GI50 [36]: 73.2 µM | TGI [36]: > 100 µM | GI50 [37]: 16.4 µM | TGI [37]: 76.3 µM | GI50 [38]: 18 µM | TGI [38]: 53.2 µM | GI50 [39]: 36.7 µM | TGI [39]: > 100 µM | GI50 [40]: > 100 µM | TGI [40]: > 100 µM | GI50 [41]: 29.9 µM | TGI [41]: > 100 µM | GI50 [42]: 34.8 µM | TGI [42]: > 100 µM | GI50 [43]: 26.4 µM | TGI [43]: 62.1 µM | GI50 [44]: 28.8 µM | TGI [44]: 76.4 µM | GI50 [45]: 24.2 µM | TGI [45]: 65 µM | GI50 [46]: 29.3 µM | TGI [46]: 92.2 µM | GI50 [47]: 28.3 µM | TGI [47]: > 100 µM | GI50 [48]: 22.7 µM | TGI [48]: 78.3 µM | GI50 [49]: 91.2 µM | TGI [49]: > 100 µM | GI50 [50]: 5.62 µM | TGI [50]: > 100 µM | GI50 [51]: 17.5 µM | TGI [51]: 36.5 µM | GI50 [52]: > 100 µM | TGI [52]: > 100 µM | GI50 [53]: 21.2 µM | TGI [53]: 42.7 µM | GI50 [54]: 96 µM | TGI [54]: > 100 µM | GI50 [55]: 22.2 µM | TGI [55]: > 100 µM | GI50 [56]: > 100 µM | TGI [56]: > 100 µM
